Reference: patent US9512138B2, “Compositions and methods for treating cancer” (The Regents of the University of California, priority 2012, dated 2016)
Entries after “also recorded” stand apart in the source; their conditions may differ. Counter-ions that a name gives are not always drawn.

Assays:
[1] = test system: A549, H23, H2122 and H1975 NSCLC cells; test: MTS cell viability/proliferation assay in NSCLC cell lines, 72 h; type: cell-based, human
Protocol: FIG. 5. Parthenolide analogues JD201-JD210 suppress human lung tumor cell proliferation in vitro. A549, H23, H2122 and H1975 NSCLC cells were treated with increasing concentrations of drugs (0.1-100 μM). After 72 h cell viability was assessed by MTS assay. Viable cells are expressed as percentage of vehicle control. P<0.01 (**), versus control group, P<0.05 (*), versus control group. Natural occurring parthenolide (PTL), parthenolide analogues JD201 (DMAPT)-JD210. Parthenolide analogues inhibit female (H1975, H2122) and male (H23, A549) NSCLC cell proliferation.
To determine the effect of parthenolide analogues in lung cancer cell proliferation we tested two male (A549, H23) and two female (H2122, H1975) lung cancer cell lines with increasing concentrations of parthenolide analogues (0.1, 1, 10 and 100 μM) for 72 hours.

[2] = test system: MCF-7/TAMR breast cancer cells; test: Proliferation of tamoxifen-resistant MCF-7/TMR (TAM-R) cells; type: cell-based, human; details: absence of parthenolide analogues
Protocol: MCF-7/CON cells are tamoxifen-sensitive, while MCF-7/HER2 and MCF-7/TMR cells are known to be tamoxifen-resistant (28,61,66,67). Except for TMR (64,68), cells were routinely cultured in RPMI 1640 media with 10% heat-inactivated FBS (28,64,66). For E2-free conditions, media were changed 48 h before studies to phenol-red free RPMI 1640 with 1% dextran-coated, charcoal-treated (DCC) FBS. TMR cells were derived by long-term continuous exposure of cells to 10^−7 M 4-hydroxy-tamoxifen by established methods (64,68) and were maintained with 10^−7 M 4-hydroxytamoxifen in medium. Levels of ERα and HER2 expression in these several cell lines were determined by use of Western blot methods.
Assays for Tumor Cell Proliferation. Breast tumor cells were be grown in RPMI 1640 media with 10% heat-inactivated FBS (except for TMR and TZR cells as noted above). For estrogen-free conditions, medium were changed 48 h before studies to phenol-red free RPMI 1640 with 1% dextran-coated, charcoal-treated (DCC) FBS, then treated with selected reagents. Cell counts and viability tests (Trypan blue) will be done every 24 hr for […]. After 48-72 hr, proliferation was assessed by cell counts.

[3] = test system: MCF7 parent cells without HER2 overexpression; test: MCF-7 parent xenografts in nude mice; type: in vivo; details: 28 d treatment
Source text: (§1) Conversion of estrogen-sensitive to -resistant tumors after the start of antiestrogen therapy is a major problem in the clinic (65). This resistance may be due, in part, to enhanced growth factor signaling, a cellular response to antiestrogen treatment that eventually results in increased phosphorylation of ER and/or coactivators, such as AIB1(54). Convergence between growth factor and estrogen signaling may elicit a synergistic feed-forward circuit with more robust cell growth (FIG. 10). It is notable that tumors with HER-2 overexpression tend to respond poorly to antiestrogens (69-72). […] Such clinical data offer further evidence of the biologic interaction between HER-2 and ER. To evaluate the relation of HER-2 to clinical antiestrogen resistance, we used estrogen-responsive, MCF-7 cells with defined levels of ER that were transfected with HER-2 gene (MCF-7/HER-2). MCF-7 cells+HER-2 overexpression and parent MCF-7 cells were grown as xenografts in nude mice as before (28) (FIGS. 11A-11B).
(§2) FIGS. 11A-11B. Overexpression of HER2 gene in MCF7 cells elicits resistance to endocrine therapy in vivo; FIG. 11A: Antiestrogen sensitivity of MCF7 parent cells without HER2 overexpression (control) in vivo. MCF7 cells were inoculated SQ in ovari-ectomized, nude mice primed with estrogen. […] Tumor volumes were recorded. […]

MCF-7/HER2 cells = test: MCF-7/HER2 xenografts in nude mice; type: in vivo
Source text: as §1, §2

A549 NSCLC cells = test: ALDH+/CD133+ cancer stem/progenitor cell subset by Aldefluor/CD133 FACS; type: cell-based, human; details: 10 nM estradiol-17b, P<0.001
Protocol: FIG. 1. Isolation of cancer stem/progenitor cell subsets as determined by assay of specific biomarkers, ALDH and CD133, and effect of estrogen exposure. NSCLC cells (A549) were treated in vitro with control (CON), 10 nM estradiol-17b (E2), or E2 in the presence of […] fulvestrant. Thereafter, aldehyde dehydrogenase (ALDH) activity and CD133 expression were analyzed by established double labeling methods using an Aldefluor Assay Kit and CD133 antibody, respectively, followed by FACS sorting. The numbers of ALDH+/CD133+ lung tumor cells, representing a putative CSC subset, was expressed as a percent of total lung tumor cells for each treatment group. […] Experiments were done in triplicate.
Substantial evidence has accumulated to support the role of a small subset of self-renewing cells that sustain malignant growth. […] Based on these findings, we identified CD133+/ALDH+ tumor stem/progenitor cells from human lung cancer cells in vitro using an Aldefluor assay (to isolate ALDH+ cells) (5,7,8) in combination with labeled anti-CD133 antibodies (3,10) followed by fluorescence-activated cell sorting analysis (11). In brief, ALDH activity and CD133 expression were analyzed by established double labeling methods using the Aldefluor Assay Kit (Stem Cell Technologies) and CD133/1 antibody (Miltenyi) according to the manufacturer's instructions. […] Data were analyzed using FlowJo (Tree Star Inc.). […]

[4] = test system: NF-κB/p65 phosphorylation; test: Western blot of phospho-NF-κB/p65 in H23 cells; type: cell-based, human; details: for phosphorylation of the p65 subunit of NF-κB: 10 μM, 60 min (FIG. 7); for phosphorylation of NF-κB/p65: 10 µM, 60 min (FIG. 13)
Protocol: FIG. 7. […] After 60 min Western blot were performed using anti-phospho-NF-κB/p65 antibody (Cell Signaling Technology #3031). Membranes were stripped and re-probed with antibody against total NF-κB/p65 (CST #3037).
After 60 min, Western blots were done using anti-phospho-NFκB/p65 antibody (Cell Signaling).
Upon confirming that parthenolide analogues can inhibit NSCLC cell proliferation, induce cell death and enhance the cytotoxicity of chemotherapy, we began to investigate potential cellular mechanisms that may underlie this process. For example, we used Western Blot methods to determine phosphorylation of the p65 subunit of NF-κB. H23 cells were incubated in the presence of vehicle control or 10 μM concentration of the parthenolide derivatives (JD 201, 202, 203, 204) for 60 min. After treatment, cells were collected and homogenized in lysis buffer. Extracts were electrophoresed on 4-20% gradient SDS-PAGE gels and transferred to nitrocellulose membranes. Blots were probed with anti-phospho-NF-κB/p65 and NF-κB/p65 for a loading control.

[5] = cited from earlier work
[6] = in vivo; cited from earlier work

C/C1=C\CC[C@@]2(C)O[C@H]2[C@H]2OC(=O)[C@@H](CN(C)O)[C@@H]2CC1 [JD207, (1aR,7aS,8R,10aS,Z)-8-((Hydroxy(methyl)amino)methyl)-1a,5-dimethyl-2,3,6,7,7a,8,10a, 10b-octahydrooxireno[2′,3′:9,10]cyclodeca[1,2-b]furan-9(1aH)-one, fumaric acid salt]
growth inhibition at 100 μM ([1]; A549, H23, H2122, H1975): Significant growth inhibition

CC/C(=C(\c1ccccc1)c1ccc(OCCN(C)C)cc1)c1ccccc1 [tamoxifen]
response of MCF-7/TMR cells to tamoxifen alone [2]: resistant | growth of MCF-7 parent xenografts [3]: markedly suppressed | antiestrogen sensitivity of MCF-7/HER-2 xenografts (MCF-7/HER2 cells): insensitive

estradiol-17b
proportion/number of ALDH+/CD133+ cancer stem/progenitor cells (A549 NSCLC cells): increases the proportion of cancer stem/progenitor cell subsets | proportion/number of ALDH+/CD133+ cancer stem/progenitor cells (A549 NSCLC cells; listed as estrogen): modest increase in the numbers of CSC

C/C1=C\CC[C@@]2(C)O[C@H]2[C@H]2OC(=O)/C(=C\N3CCCCC3)[C@@H]2CC1 [JD205, (1aR,4Z,7aS,8Z,10aS)-1a,5-Dimethyl-8-(piperidin-1-ylmethylene)-2,3,6,7,7a,8,10a,10b-octahydrooxireno[2′,3′:9,10]cyclodeca[1,2-b]furan-9(1aH)-one]
growth inhibition at 100 μM ([1]; A549, H23, H2122, H1975): Significant growth inhibition | phosphorylation of the p65 subunit of NF-κB [4]: inhibit phosphory-lation of NF-κB/p65 | phosphorylation of NF-κB/p65 [4]: inhibit phosphorylation of NF-κB/p65

C[C@]12CC[C@@H]3c4ccc(O)cc4C[C@@H](CCCCCCCCC[S+]([O-])CCCC(F)(F)C(F)(F)F)[C@H]3[C@@H]1CC[C@@H]2O (stereo partly drawn) [fulvestrant]
growth of MCF-7 parent xenografts [3]: markedly suppressed | antiestrogen sensitivity of MCF-7/HER-2 xenografts (MCF-7/HER2 cells): partial sensitivity

C/C1=C\CC[C@@]2(C)O[C@H]2[C@H]2OC(=O)[C@@H](CN(C)C)[C@@H]2CC1 [JD201, (1aR,7aS,8R,10aS,Z)-8-((Dimethylamino)methyl)-1a,5-dimethyl-2,3,6,7,7a,8,10a,10b-octa-hydrooxireno[2′,3′:9,10]cyclodeca[1,2-b]furan-9(1aH)-one, fumaric acid salt]
plasma concentrations ([5]; after oral administration): 40 µM | oral bioavaliability ([5]; oral): 70% | toxicology profile [6]: acceptable

C/C1=C/CC[C@@]2(C)OC2[C@H]2OC(=O)[C@@H](CNCc3ccccn3)[C@@H]2CC1.O=C(O)/C=C/C(=O)O (stereo partly drawn) [JD202, (1aR,7aS,8R,10aS,Z)-1a,5-Dimethyl-8-(((pyridin-2-ylmethyl)amino)methyl)-2,3,6,7,7a,8, 10a,10b-octahydrooxireno[2′,3′:9,10]cyclodeca[1,2-b]furan-9(1aH)-one, fumaric acid salt]
growth inhibition at 10 μM ([1]; 10 μM, A549, H23, H2122, H1975): Significant growth inhibition | growth inhibition at 100 μM ([1]; A549, H23, H2122, H1975): Significant growth inhibition | inhibitory activity relative to other analogues ([1]; FIG. 5, 0.1-100 μM): greater inhibitory activity than compounds 205 and 207 | phosphorylation of the p65 subunit of NF-κB [4]: reduced phosphorylation of the p65 subunit of NF-κB; also recorded: inhibit phosphory-lation of NF-κB/p65 | phosphorylation of NF-κB/p65 [4]: inhibit phosphorylation of NF-κB/p65

CON(C)C[C@@H]1C(=O)O[C@H]2[C@H]1CC/C(C)=C/CC[C@@]1(C)O[C@@H]21 [JD204, (1aR,7aS,8R,10aS,Z)-8-((Methoxy(methyl)amino)methyl)-1a,5-dimethyl-2,3,6,7,7a,8,10a, 10b-octahydrooxireno[2′,3′:9,10]cyclodeca[1,2-b]furan-9(1aH)-one, fumaric acid salt]
phosphorylation of the p65 subunit of NF-κB [4]: reduced phosphorylation of the p65 subunit of NF-κB; also recorded: inhibit phosphory-lation of NF-κB/p65 | phosphorylation of NF-κB/p65 [4]: inhibit phosphorylation of NF-κB/p65
